Measured values reported in patent US20230293542A1, “SENSORY STIMULATING PSYCHOTROPIC DRUG” (KANSAI MEDICAL UNIVERSITY, priority 2020, published 2023).

Legend:
C57/BL6 mice [1] = experiment: Contextual fear conditioning 30 min after intraperitoneal administration (inhibition of fear memory formation), freezing behavior; format: in vivo; conditions: intraperitoneal 200 μl of 1 v/v % solution in saline, 30 min before conditioning; freezing for 10 min on day 1, no odor; compared with saline-administered group (=100%); n=6; FIG. 2-12
Description: • Day 0: To about 2 month-old C57/BL6 mice was intraperitoneally administered 200 μl of saline, or 1 v/v % 2-methyl-2-thiazoline solution (dissolved in saline), or 1 v/v % 5-methylthiazole solution (dissolved in saline), or 1 v/v % 4-ethyl-2-methyl-2-thiazoline solution (dissolved in saline), or 1 v/v % 2,4,5-trimethyl-3-thiazoline solution (dissolved in saline), or 1 v/v % thiomorpholine solution (dissolved in saline), or 1 v/v % allyl isothiocyanate (AITC) solution (dissolved in saline), or 1 v/v % 2,3-diethylpyrazine solution (dissolved in saline), or 1 v/v % 2,6-lutidine solution (dissolved in saline) (each condition n=6). Thirty minutes after the administration, the mice were placed in an electric shock chamber, and 2-second electric shock (0.6 mA) was given 6 times at 2-minute intervals for 12 min for contextual fear conditioning. • Day 1: Mice were placed in the electric shock chamber (no odor) used for learning on the previous day, and freezing behavior was measured for 10 min using dedicated software (Freeze frame 2).
In addition, a student's t-test was performed between the saline-administered group and each compound-administered group (*p<0.05, ***p<0.001).
(§1) • Day 0: To about 2 month-old C57/BL6 mice was intraperitoneally administered 200 μl of saline or 1 v/v % 2-(allylthio)-2-thiazoline solution (dissolved in saline) (each condition n=6). Thirty minutes after the administration, the mice were placed in an electric shock chamber, and 2-second electric shock (0.6 mA) was given 6 times at 2-minute intervals for 12 min for contextual fear conditioning. • Day 1: Mice were placed in the electric shock chamber (no odor) used for learning on the previous day, and freezing behavior was measured for 10 min using dedicated software (Freeze frame 2).
A student's t-test was performed between the saline-administered group and the 2-(allylthio)-2-thiazoline-administered group (*p<0.05).
as §1, with “4-tert-butyl-2-methylthiazole” for “2-(allylthio)-2-thiazoline”
as §1, with “2-ethoxythiazole” for “2-(allylthio)-2-thiazoline”
as §1, with “2-methylbenzothiazole” for “2-(allylthio)-2-thiazoline”
• Day 0: To about 2 month-old 057/BL6 mice was intraperitoneally administered 200 μl of saline or 1 v/v % 2-mercaptothiazole solution (dissolved in saline) (each condition n=6). […]

C57/BL6 mice [2] = experiment: Contextual fear conditioning in the presence of thiazoline-related fear odor (inhibition of fear memory formation), freezing behavior; format: in vivo; conditions: FIG. 1
Description: • Day 0: About 2-month-old C57/BL6 mice were placed in an electric shock chamber, and 2-second electric shock (0.6 mA) was given 6 times at 2-minute intervals for 12 min for contextual fear conditioning. Conditioning was performed under 4 conditions of no odor condition (control; n=6) (group 1) and an electric shock chamber with filter paper impregnated with 100 μl of 2-methyl-2-thiazoline (2MT) condition (2MT; n=6) (group 2), or no odor condition (control; n=6) (group 3) and an electric shock chamber with filter paper impregnated with 10 μl of 2-methyl-2-thiazoline (2MT) condition (2MT; n=6) (group 4). • Day 1: Mice were placed in the electric shock chamber (no odor) used for learning on the previous day, and freezing behavior was measured for 10 min using dedicated software (Freeze frame 2; ActiMetrics). • Day 3: The mice of group 1 and group 2 were placed in an electric shock chamber with filter paper impregnated with 100 μl of Eugenol, and freezing behavior was measured for 10 min. The mice in group 3 and group 4 were placed in an electric shock chamber with filter paper impregnated with 10 μl of Eugenol, and freezing behavior was measured for 10 min.
A student's t-test was also performed between the group with no odor and the group with 2MT (**p<0.01, ***p<0.001).

Compound | frequency of freezing behavior during the test (day 1) (C57/BL6 mice [1]) | freezing behavior in the context with odor (eugenol odor context; day 3) (C57/BL6 mice [2]; filter paper impregnated with 100 μl or 10 μl of 2MT during fear conditioning, freezing measured for 10 min on day 3 with Eugenol, compared to group that learned with no odor) | freezing behavior in the no odor context (day 1) (C57/BL6 mice [2]; filter paper impregnated with 100 μl or 10 μl of 2MT in electric shock chamber during fear conditioning, freezing measured for 10 min on day 1, compared to no odor group)
C1CSCCN1 [thiomorpholine] | significant decrease | – | –
Cc1cncs1 [5-methylthiazole] | significant decrease | – | –
C=CCSC1=NCCS1 [2-(allylthio)-2-thiazoline] | significant decrease | – | –
C=CCN=C=S [AITC, allyl isothiocyanate] | significant decrease | – | –
Cc1cccc(C)n1 [2,6-lutidine] | significant decrease | – | –
Cc1nccs1 [2-methylthiazole] | significant decrease | – | –
Sc1nccs1 [2-mercaptothiazole] | significant decrease | – | –
CC1CNCCS1 (centres unmarked) [2-methylthiomorpholine] | significant decrease | – | –
C=C(C)CN=C=S [methallyl isothiocyanate] | significant decrease | – | –
CC1=NCCS1 [2-methyl-2-thiazoline] | significant decrease | marked decrease | remarkably decreased
CCOc1nccs1 [2-ethoxythiazole] | significant decrease | – | –
CCc1nccnc1CC [2,3-diethylpyrazine] | significant decrease | – | –
CC1=NC(C)SC1C (centres unmarked) [2,4,5-trimethyl-3-thiazoline] | significant decrease | – | –
Cc1nc(C(C)(C)C)cs1 [4-tert-butyl-2-methylthiazole] | significant decrease | – | –
CC(=O)c1ccc[nH]1 [2-acetylpyrrole] | significant decrease | – | –
Cc1nc2ccccc2s1 [2-methylbenzothiazole] | significant decrease | – | –
NC1=NCCS1 [2-amino-2-thiazoline] | significant decrease | – | –
CCC1CSC(C)=N1 (centres unmarked) [4-ethyl-2-methyl-2-thiazoline] | significant decrease | – | –
